Source: PubChem BioAssay AID256 (DTP/NCI, 2004)
Where “and” joins values, the source holds several entries; their conditions need not be identical. Equal entries are not always repeated. Toxic doses and inconclusive results are not listed.

Test system: CD2F1 mice, L1210 leukemia ip, survival T/C
Assay: NCI In Vivo Anticancer Drug Screen. Data for tumor model L1210 Leukemia (intraperitoneal) in CD2F1 (CDF1) mice
Details: higher = longer survival
In short: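 Transplantable tumor in mice; compound-treated vs vehicle-treated groups. Read-out = treated/control ratio of the measured endpoint.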

[1] = endpoint: mean survival time, dose: 100.0 mg/kg/injection, schedule: Q04DX003 (ip), vehicle: saline
[2] = endpoint: mean survival time, dose: 200.0 mg/kg/injection, schedule: Q04DX003 (ip), vehicle: saline
[3] = endpoint: mean survival time, dose: 400.0 mg/kg/injection, schedule: Q04DX003 (ip), vehicle: saline
[4] = endpoint: mean survival time, dose: 25.0 mg/kg/injection, schedule: Q01DX009 (ip), vehicle: saline with Tween-80
[5] = endpoint: mean survival time, dose: 50.0 mg/kg/injection, schedule: Q01DX009 (ip), vehicle: saline with Tween-80
[6] = endpoint: mean survival time, dose: 100.0 mg/kg/injection, schedule: Q01DX009 (ip), vehicle: saline with Tween-80
[7] = endpoint: mean survival time, dose: 100.0 mg/kg/injection, schedule: Q04DX003 (ip), vehicle: saline with Tween-80
[8] = endpoint: mean survival time, dose: 200.0 mg/kg/injection, schedule: Q01DX009 (ip), vehicle: saline with Tween-80
[9] = endpoint: mean survival time, dose: 200.0 mg/kg/injection, schedule: Q04DX003 (ip), vehicle: saline with Tween-80
[10] = endpoint: mean survival time, dose: 100.0 mg/kg/injection, schedule: Q01DX001 (ip), vehicle: saline with Tween-80
[11] = endpoint: mean survival time, dose: 200.0 mg/kg/injection, schedule: Q01DX001 (ip), vehicle: saline with Tween-80
[12] = endpoint: mean survival time, dose: 400.0 mg/kg/injection, schedule: Q01DX001 (ip), vehicle: saline with Tween-80

For `CC1=C2CC3CCC(C)C2(CC1)C3(C)C` (stereo unspecified), the T/C (endpoint: mean survival time, dose: 100.0 mg/kg/injection, schedule: Q04DX002 (ip), vehicle: Klucel (hydroxypropylcellulose) (HPC)) was 111 % of control, the T/C [1] was 96 % of control and the T/C (endpoint: mean survival time, dose: 200.0 mg/kg/injection, schedule: Q04DX002 (ip), vehicle: Klucel (hydroxypropylcellulose) (HPC)) was 96 % of control. The T/C [2] was 98 % of control, the T/C (endpoint: mean survival time, dose: 400.0 mg/kg/injection, schedule: Q04DX002 (ip), vehicle: Klucel (hydroxypropylcellulose) (HPC)) was 96 % of control and the T/C [3] was 106 % of control.
`Cc1cc(C(C)(C)C)c(OC(=S)N(C)C)c(C(C)(C)C)c1` was tested, and the T/C [4] was 92 % of control and the T/C [5] was 89 % of control.
In the case of `O=[N+]([O-])O.[La]`, the T/C [5] is reported as 90 % of control, the T/C [6] is reported as 97 % of control and the T/C [7] is reported as 92 % of control. The T/C [1] was 97 % of control, the T/C [8] was 92 % of control and the T/C [9] was 93 % of control. For the same molecule, the T/C [2] was 98 % of control.
For `O=P(NCCCO)(OCc1ccccc1)N(CCCl)CCCl` (stereo unspecified), the T/C (endpoint: mean survival time, dose: 15.63 mg/kg/injection, schedule: Q01DX001 (ip), vehicle: DMSO) was 101 % of control, the T/C (endpoint: mean survival time, dose: 31.25 mg/kg/injection, schedule: Q01DX001 (ip), vehicle: DMSO) was 98 % of control and the T/C (endpoint: mean survival time, dose: 62.5 mg/kg/injection, schedule: Q01DX001 (ip), vehicle: DMSO) was 101 % of control. The T/C (endpoint: mean survival time, dose: 125.0 mg/kg/injection, schedule: Q01DX001 (ip), vehicle: DMSO) was 104 % of control, the T/C (endpoint: mean survival time, dose: 250.0 mg/kg/injection, schedule: Q01DX001 (ip), vehicle: DMSO) was 116 % of control and the T/C (endpoint: mean survival time, dose: 1000.0 mg/kg/injection, schedule: Q01DX001 (ip), vehicle: DMSO) was 173 % of control. For the same molecule, the T/C (endpoint: mean survival time, dose: 1000.0 mg/kg/injection, schedule: Q01DX001 (ip), vehicle: other) was 178 % of control.
`COC(C[P+](Cc1ccccc1)(c1ccccc1)c1ccccc1)OC` was tested, and the T/C (endpoint: mean survival time, dose: 18.8 mg/kg/injection, schedule: Q04DX003 (ip), vehicle: saline) was 104 % of control, the T/C (endpoint: mean survival time, dose: 37.5 mg/kg/injection, schedule: Q04DX003 (ip), vehicle: saline) was 103 % of control and the T/C (endpoint: mean survival time, dose: 75.0 mg/kg/injection, schedule: Q01DX001 (ip), vehicle: saline) was 101 % of control. For the same molecule, the T/C (endpoint: mean survival time, dose: 75.0 mg/kg/injection, schedule: Q04DX003 (ip), vehicle: saline) was 98 % of control.
With `C=C(C)CS(=O)(=O)Cc1ccccc1` the T/C (endpoint: mean survival time, dose: 50.0 mg/kg/injection, schedule: Q01DX001 (ip), vehicle: Klucel (hydroxypropylcellulose) (HPC)) was 96 % of control, the T/C (endpoint: mean survival time, dose: 100.0 mg/kg/injection, schedule: Q01DX001 (ip), vehicle: Klucel (hydroxypropylcellulose) (HPC)) was 102 % of control and the T/C (endpoint: mean survival time, dose: 200.0 mg/kg/injection, schedule: Q01DX001 (ip), vehicle: Klucel (hydroxypropylcellulose) (HPC)) was 102 % of control.
With `COc1cc(C[C@@H]2COC(=O)[C@]2(O)Cc2ccc(O)c(OC)c2)ccc1O` the T/C (endpoint: mean survival time, dose: 1.0 mg/kg/injection, schedule: Q01DX009 (ip), vehicle: saline + alcohol) was 106 % of control, the T/C (endpoint: mean survival time, dose: 2.0 mg/kg/injection, schedule: Q01DX009 (ip), vehicle: saline + alcohol) was 104 % of control and the T/C (endpoint: mean survival time, dose: 4.0 mg/kg/injection, schedule: Q01DX009 (ip), vehicle: saline + alcohol) was 106 % of control. The T/C (endpoint: mean survival time, dose: 8.0 mg/kg/injection, schedule: Q01DX009 (ip), vehicle: saline + alcohol) was 103 % of control and the T/C (endpoint: mean survival time, dose: 16.0 mg/kg/injection, schedule: Q01DX009 (ip), vehicle: saline + alcohol) was 101 % of control.
For `CN(C)C1CC[N-]CC1.CN(C)C1CC[N-]CC1.[Cl][Pt+2][Cl]`, the T/C (endpoint: mean survival time, dose: 25.0 mg/kg/injection, schedule: Q04DX003 (ip), vehicle: saline) was 103 % of control, the T/C (endpoint: mean survival time, dose: 50.0 mg/kg/injection, schedule: Q04DX003 (ip), vehicle: saline) was 109 % of control and the T/C [1] was 114 % of control.
In the case of `O=c1nc2n(cc1F)C1OC(CCl)C(O)C1O2` (stereo unspecified), the T/C (endpoint: median survival time, dose: 12.5 mg/kg/injection, schedule: Q01DX005 (ip), vehicle: saline with Tween-80) is reported as 101 % of control, the T/C (endpoint: median survival time, dose: 25.0 mg/kg/injection, schedule: Q01DX005 (ip), vehicle: saline with Tween-80) is reported as 104 % of control and the T/C (endpoint: median survival time, dose: 50.0 mg/kg/injection, schedule: Q01DX005 (ip), vehicle: saline with Tween-80) is reported as 97 % of control. The T/C (endpoint: median survival time, dose: 100.0 mg/kg/injection, schedule: Q01DX005 (ip), vehicle: saline with Tween-80) was 101 % of control and the T/C (endpoint: median survival time, dose: 200.0 mg/kg/injection, schedule: Q01DX005 (ip), vehicle: saline with Tween-80) was 105 % of control.
In the case of `CCCCCCCCSC1=C(Cl)C(=O)C(OC)=C(OC)C1=O`, the T/C (endpoint: mean survival time, dose: 1.5 mg/kg/injection, schedule: Q01DX009 (ip), vehicle: saline with Tween-80) is reported as 95 % of control, the T/C (endpoint: mean survival time, dose: 3.0 mg/kg/injection, schedule: Q01DX009 (ip), vehicle: saline with Tween-80) is reported as 98 % of control and the T/C (endpoint: mean survival time, dose: 3.13 mg/kg/injection, schedule: Q01DX009 (ip), vehicle: saline with Tween-80) is reported as 94 % of control. The T/C (endpoint: mean survival time, dose: 6.25 mg/kg/injection, schedule: Q01DX009 (ip), vehicle: saline with Tween-80) was 89 % of control and 98 % of control, the T/C (endpoint: mean survival time, dose: 12.5 mg/kg/injection, schedule: Q01DX009 (ip), vehicle: saline with Tween-80) was 96 % of control and 104 % of control and the T/C [4] was 96 % of control and 102 % of control.
`CN(C)C1CC2C=CC1C1C=CC21` (stereo unspecified) was tested, and the T/C (endpoint: mean survival time, dose: 6.25 mg/kg/injection, schedule: Q01DX009 (ip), vehicle: water) was 100 % of control, the T/C (endpoint: mean survival time, dose: 12.5 mg/kg/injection, schedule: Q01DX009 (ip), vehicle: water) was 97 % of control and the T/C (endpoint: mean survival time, dose: 25.0 mg/kg/injection, schedule: Q01DX009 (ip), vehicle: water) was 101 % of control. The T/C (endpoint: mean survival time, dose: 50.0 mg/kg/injection, schedule: Q01DX009 (ip), vehicle: water) was 103 % of control.
In the case of `NC(C1SCCS1)C(O)C(O)C(O)CO` (stereo unspecified), the T/C [7] is reported as 101 % of control, the T/C [9] is reported as 104 % of control and the T/C (endpoint: mean survival time, dose: 400.0 mg/kg/injection, schedule: Q04DX003 (ip), vehicle: saline with Tween-80) is reported as 98 % of control.
In the case of `CC(C)=CBr`, the T/C (endpoint: mean survival time, dose: 100.0 mg/kg/injection, schedule: Q04DX003 (ip), vehicle: acetone) is reported as 103 % of control and the T/C (endpoint: mean survival time, dose: 200.0 mg/kg/injection, schedule: Q04DX003 (ip), vehicle: acetone) is reported as 94 % of control.
For `COC1OC(COC(C)=O)C(OC(C)=O)C(NC(=O)N(CCCl)N=O)C1OC(C)=O` (stereo unspecified), the T/C (endpoint: mean survival time, dose: 13.0 mg/kg/injection, schedule: Q01DX001 (ip), vehicle: saline with Tween-80) was 240 % of control, the T/C (endpoint: mean survival time, dose: 20.0 mg/kg/injection, schedule: Q01DX001 (ip), vehicle: saline with Tween-80) was 469 % of control and the T/C (endpoint: mean survival time, dose: 30.0 mg/kg/injection, schedule: Q01DX001 (ip), vehicle: saline with Tween-80) was 535 % of control. For the same molecule, the T/C (endpoint: mean survival time, dose: 44.0 mg/kg/injection, schedule: Q01DX001 (ip), vehicle: saline with Tween-80) was 459 % of control and the T/C (endpoint: mean survival time, dose: 67.0 mg/kg/injection, schedule: Q01DX001 (ip), vehicle: saline with Tween-80) was 245 % of control.
In the case of `CCCCCCCCCCCCCCCCCCCOc1ccc(OCCCCCCCCCC)cc1`, the T/C [10] is reported as 95 % of control, the T/C [11] is reported as 86 % of control and the T/C [12] is reported as 86 % of control.
With `O=C(COc1ccccc1)N/N=C/c1ccccc1O` the T/C [6] was 92 % of control.
For `O=C(O)CSC1=NCCN1` (tested in a mixture with another compound), the T/C (endpoint: mean survival time, dose: 100.0 mg/kg/injection, schedule: Q01DX001 (ip), vehicle: saline) was 90 % of control, the T/C (endpoint: mean survival time, dose: 200.0 mg/kg/injection, schedule: Q01DX001 (ip), vehicle: saline) was 93 % of control and the T/C (endpoint: mean survival time, dose: 400.0 mg/kg/injection, schedule: Q01DX001 (ip), vehicle: saline) was 93 % of control.
In the case of `O=c1cc(NCCCCOc2ccccc2)[nH]c(=O)[nH]1`, the T/C [10] is reported as 96 % of control, the T/C [11] is reported as 93 % of control and the T/C [12] is reported as 96 % of control.
With `O=C1CCCc2ccc(Cl)cc21` the T/C [1] was 96 % of control, the T/C [2] was 97 % of control and the T/C [3] was 108 % of control.
In the case of `C/C(=C/c1ccc([N+](=O)[O-])cc1)C(=O)O`, the T/C [10] is reported as 103 % of control, the T/C [11] is reported as 100 % of control and the T/C [12] is reported as 103 % of control.
For `C[n+]1cccc(C(=O)NCCc2c[nH]c3ccccc23)c1`, the T/C (endpoint: mean survival time, dose: 18.75 mg/kg/injection, schedule: Q01DX009 (ip), vehicle: saline with Tween-80) was 92 % of control, the T/C (endpoint: mean survival time, dose: 37.5 mg/kg/injection, schedule: Q01DX009 (ip), vehicle: saline with Tween-80) was 93 % of control and the T/C (endpoint: mean survival time, dose: 37.5 mg/kg/injection, schedule: Q04DX003 (ip), vehicle: acetone) was 95 % of control. For the same molecule, the T/C (endpoint: mean survival time, dose: 75.0 mg/kg/injection, schedule: Q01DX009 (ip), vehicle: saline with Tween-80) was 97 % of control and the T/C (endpoint: mean survival time, dose: 75.0 mg/kg/injection, schedule: Q04DX003 (ip), vehicle: acetone) was 95 % of control.
With `COc1cc(/C=N/NC(=O)COc2ccccc2)ccc1O` the T/C [6] was 89 % of control, the T/C [8] was 89 % of control and the T/C (endpoint: mean survival time, dose: 400.0 mg/kg/injection, schedule: Q01DX009 (ip), vehicle: saline with Tween-80) was 94 % of control.
